# Assay results reported in patent US7078403B1, “Antiviral agents” (Biota Scientific Management Pty Ltd., priority 1999, dated 2006).
# Where two headings read alike, the source gives them in different places.
# Tests used:
# Coxsackie A21 = test: Activity on Coxsackie A21 in mammalian cell culture assay; assay type: cell-based
# [1] = test system: Enterovirus strains Poliovirus 2, Echoviruses 2, 3, 9, 21 and 30 and Coxsackie B3; assay type: cell-based; conditions: all Enterovirus strains tested
# in vitro [2] = test: in vitro
# in vitro [3] = test: in vitro; remark: listed apart in the source
# [4] = test system: Human Rhinovirus strains 1B, 3, 4, 5, 6, 8, 9, 11, 12, 13, 16, 17, 21, 25, 30, 32, 33, 38, 39, 40, 42, 43, 45, 48, 52, 54, 56, 57, 59, 60, 63, 67, 68, 69, 72 …; test: Standard CPE reduction assay against a panel of Human Rhinovirus strains; assay type: cell-based
# in vitro [5] = conditions: human
# Enterovirus 70 = test: Activity on Enterovirus 70 in mammalian cell culture assay; assay type: cell-based; conditions: Enterovirus D
# HRV type 2 = test: Inhibition of viral cytopathic effect (CPE), visual scoring or neutral red, HRV type 2 in KB cells; assay type: cell-based, human rhinovirus; conditions: for EC50: Enterovirus, read-out: Activity on Rhinovirus Type 2 EC50; for EC50 / Activity on Rhinovirus Type 2 EC50: HRV type 2 in KB cells, CPE inhibition; for Activity on Rhinovirus Type 2 SI: selectivity index = CC50 or MTC divided by EC50, HRV type 2, KB cells
# [6] = test system: human embryo lung (MRC-5) cells; test: Cytotoxicity (CC50 or MTC) in uninfected MRC-5 cells; conditions: unit not given
# Rhinovirus Type 14 = assay type: cell-based, human rhinovirus; conditions: for EC50: Enterovirus
# HRV type 1A = test: Inhibition of viral cytopathic effect (CPE), visual scoring or neutral red, HRV type 1A in MRC-5 cells; assay type: cell-based, human rhinovirus; conditions: for Activity on Rhinovirus Type 1A EC50: HRV type 1A in MRC-5 cells; for Activity on Rhinovirus Type 1A EC50 / EC50: CPE inhibition; for Activity on Rhinovirus Type 1A SI: selectivity index = CC50 or MTC divided by EC50, HRV type 1A, MRC-5 cells; for EC50: Enterovirus, MRC5, HRV type 1A in MRC-5 cells, read-out: Activity on Rhinovirus Type 1A EC50
# [7] = test system: human embryo lung (MRC-5) cells
# in vitro [8] = conditions: mammalian cell culture (cell line not stated)
# HRV-2 = test: Time of addition study, CPE inhibition of HRV-2 in KB cells; assay type: cell-based, human rhinovirus; conditions: Rhinovirus A, read-out: EC50 (visual assay)
# [9] = HRV14, HRV-14, read-out: Activity on Rhinovirus Type 14 EC50
# [10] = mammalian cell culture (cell line not stated)
Structure (SMILES),Activity on Rhinovirus Type 2 SI (HRV type 2),Activity on Rhinovirus Type 1A MTC [6],Activity on Rhinovirus Type 2 EC50 (HRV type 2) [µg/mL],Activity on Rhinovirus Type 14 EC50 (Rhinovirus Type 14; HRV-14) [µg/mL],Activity on Rhinovirus Type 1A EC50 (HRV type 1A) [µg/mL],Activity on Rhinovirus Type 1A SI (HRV type 1A),further results
"CCO/N=C/c1ccc(OCCC2CCN(c3ccc(Cl)nn3)CC2)cc1 [Compound 1, 4-{2-[1-(6-Chloro-3-pyridazinyl)4-piperidinyl]ethoxy}benzaldehyde O-ethyloxime]",>1000,,,,,,EC50 (Coxsackie A21): < 0.000156 µg/mL; Inhibitory activity compared with Pirodavir [1]: superior activity to Pirodavir; CC50 (in vitro [2]): > 50 µg/mL; CC50 (in vitro [3]): > 50 µg/mL; Inhibitory activity compared with Pirodavir ([4]; nearly all HRV strains tested): superior activity to Pirodavir; CC50 (in vitro [5]): > 1 µg/mL; EC50 (Enterovirus 70): 0.03 µg/mL; EC50 (HRV type 2): < 0.001 µg/mL
CCON=Cc1ccc(OCCC2CCN(c3ccc(Cl)nn3)CC2)c(OC)c1 [Compound 5],>111,>1,0.009,0.0077,<0.0032,>312,
CON=Cc1ccc(OCCC2CCN(c3ccc(C)nn3)CC2)cc1 [Compound 7],>7,>1,0.15,0.0068,<0.0032,>312,
CON=Cc1ccc(OCCC2CCN(c3ccc(Cl)nn3)CC2)cc1 [Compound 8],>33,>1,0.03,0.0072,<0.0032,>312,
CCCON=Cc1ccc(OCCC2CCN(c3ccc(Cl)nn3)CC2)cc1 [Compound 11],>250,>1,0.004,0.0077,<0.0032,>312,
C=CCON=Cc1ccc(OCCC2CCN(c3ccc(Cl)nn3)CC2)cc1 [Compound 13],83,>1,0.006,0.0078,<0.0032,>312,
CCON=Cc1cc(C)c(OCCCc2cc(C)no2)c(C)c1 [Compound 24],>500,>50,<0.05,,<0.16,>320,Inhibitory activity compared with Pleconaril ([4]; HRV strains panel): superior activity to Pleconaril
CON=Cc1ccc(OCCC2CCN(c3ccc(Cl)nn3)CC2)c(OC)c1 [Compound 33],>25,>1,0.04,0.0138,0.014,>72.4,
CCON=Cc1ccc(OCCC2CCN(c3ccc(Cl)nn3)CC2)c(C)c1 [Compound 42],>167,>1,0.006,0.0111,0.006,>177.8,
CON=Cc1ccc(OCCC2CCN(c3ccc(Cl)nn3)CC2)c(C)c1 [Compound 44],>38,>1,0.026,0.0194,<0.003,>312,
CCON=Cc1ccc(OCCC2CCN(c3ccc(C)nn3)CC2)c(C)c1 [Compound 51],,0.663,,0.0093,<0.003,>207.3,
CON=Cc1ccc(OCCC2CCN(c3ccc(C)nn3)CC2)c(C)c1 [Compound 52],,>1,,0.0054,<0.003,>312,
"CCO/N=C/c1cc(C)c(OCCCc2cc(-c3ccccc3)no2)c(C)c1 [Compound 127, 3,5-Dimethyl-[4-{3-(3-Phenyl-5-isoxazolyl)propoxy)]benzaldehyde O-ethyloxime]",,,,,,>3,EC50 (HRV type 1A): 0.329 µg/mL; Activity on Rhinovirus Type 1A MTC [7]: >1
"CCON=Cc1ccc(OCCC2CCN(c3ccc(C=O)nn3)CC2)cc1 [Compound 128, 4-(2-[1-(6-Formyl-3-pyridazinyl)-4-piperidinyl]ethoxy)benzaldehyde O-ethyloxime]",,,,,,>15,EC50 (HRV type 1A): 0.063 µg/mL; Activity on Rhinovirus Type 1A MTC [7]: >1
CCON=Cc1ccc(OCCC2CCN(c3ccc(C)nn3)CC2)c(O)c1 [Compound 146],,>1,,0.0084,0.051,>19,
"CCO/N=C/c1csc(OCCC2CCN(c3ccc(C)nn3)CC2)n1 [Compound 155, 2-(1-(6 methyl-3-pyridazinyl)-4-piperidinylethoxy)-thiazole-4-carboxaldehyde O-ethyl oxime]",,,,,,,CC50 (in vitro [8]): > 0.5 µg/mL; EC50 (Rhinovirus Type 14; [9]): 0.0138 µg/mL
CCO/N=C/c1ccc(OCCC2CCN(c3nnc(C)s3)CC2)cc1 [Compound 158],,,,,,,CC50 (in vitro [8]): > 0.5 µg/mL; EC50 (Rhinovirus Type 14; [9]): 0.00095 µg/mL
CCO/N=C/c1ccc(OCCCCCN(C)c2ccc(Cl)nn2)cc1 [Compound 161],,,,,,,CC50 (in vitro [8]): > 0.5 µg/mL; EC50 (Rhinovirus Type 14; [9]): 0.0348 µg/mL
CCc1cnc(N2CCC(CCOc3ccc(/C=N/OC)cc3)CC2)nc1 [Compound 204],,,,0.0554,,,
CCO/N=C/c1ccc(OCCC2CCN(c3ncc(CC)cn3)CC2)cc1 [Compound 205],,,,0.0638,,,
CO/N=C/c1ccc(OCCC2CCN(c3nc4ccccc4s3)CC2)cc1 [Compound 206],,,,0.0233,,,
CCO/N=C/c1ccc(OCCCCCOc2ccc(Cl)nn2)cc1 [Compound 209],,,,0.0157,,,
CCO/N=C/c1ccc(OCCC2CCN(c3cc(C)c(Cl)nn3)CC2)cc1 [Compound 212],,,,0.0107,,,
CC(C)S(=O)(=O)n1c(N)nc2ccc(/C(=N/O)c3ccccc3)cc21 [Enviroxime],,,,,,75.91,EC50 (Coxsackie A21): 0.39 µg/mL; EC50 (Enterovirus 70): 0.21 µg/mL; EC50 (HRV type 1A): 0.006 µg/mL; Activity on Rhinovirus Type 1A MTC [7]: 0.49
"CCOC(=O)c1ccc(OCCC2CCN(c3ccc(C)nn3)CC2)cc1 [Pirodavir, ethyl 4-[2-[1-(6-methyl-3-pyridazinyl)-4-piperidinyl]-ethoxy]benzoate]",>300,,,,,555.74,"CC50 (in vitro [5]): > 1 µg/mL; EC50 (HRV type 2): 0.003 µg/mL; EC50 (HRV-2; HRV2, time of addition 0 hr): 0.004 µg/mL; EC50 (HRV-2; HRV2, time of addition 1 hr post-virus): 0.1 µg/mL; EC50 (HRV-2; HRV2, time of addition 2 hr post-virus): > 0.1 µg/mL; EC50 (HRV-2; HRV2, time of addition 4 hr post-virus): > 0.1 µg/mL; EC50 (HRV-2; HRV2, time of addition 6 hr post-virus): > 0.1 µg/mL; EC50 (HRV-2; HRV2, time of addition 8 hr post-virus): > 0.1 µg/mL; EC50 (HRV-2; HRV2, time of addition 24 hr post-virus): > 0.1 µg/mL; EC50 (HRV-2; HRV2, time of addition −1 hr (pre-treatment)): 0.023 µg/mL; EC50 (HRV type 1A): 0.02 µg/mL; Activity on Rhinovirus Type 1A MTC [7]: >10.00"
"Cc1cc(CCCOc2c(C)cc(-c3noc(C(F)(F)F)n3)cc2C)on1 [Pleconaril, reference compound]",,,,,,,"CC50 (in vitro [8]): > 0.1 µg/mL; EC50 (Rhinovirus Type 14; HRV14, read-out: Activity on Rhinovirus Type 14 EC50): 0.0608 µg/mL"
NC(=O)c1ncn([C@@H]2O[C@H](CO)[C@@H](O)[C@H]2O)n1 [Ribavirin],,98.3,,,,51.03,EC50 (Coxsackie A21): > 100 µg/mL; CC50 (in vitro [2]; [10]): > 100 µg/mL; CC50 (in vitro [3]; [10]): > 100 µg/mL; EC50 (Enterovirus 70): > 100 µg/mL; EC50 (HRV type 1A): 1.93 µg/mL
